System: MV-4-11 cells
Assay: Gene expression microarray analysis (Affymetrix PrimeView) and GSEA
Type: cell-based, human
Set-up: RFU PODN (11730768_x_at) / Fold change /veh PODN (11730768_x_at) / RFU LINC00158 (11744669_a_at) / Fold change /veh LINC00158 (11744669_a_at) / RFU DUSP10 (11751237_a_at) / Fold change /veh DUSP10 (11751237_a_at) / RFU ID3 (11757404_x_at) / Fold change /veh ID3 (11757404_x_at) / RFU PLEKHG5 (11737974_s_at) / Fold change /veh PLEKHG5 (11737974_s_at) / RFU LRRC4B (11730491_at) / Fold change /veh LRRC4B (11730491_at) / RFU GIMAP4 (11747438_a_at) / Fold change /veh GIMAP4 (11747438_a_at) / RFU KRT8 (11758183_x_at) / Fold change /veh KRT8 (11758183_x_at) / RFU CNN1 (11734310_a_at) / Fold change /veh CNN1 (11734310_a_at) / RFU VPS37D (11726825_at) / Fold change /veh VPS37D (11726825_at) / RFU C10orf10 (11716522_x_at) / Fold change /veh C10orf10 (11716522_x_at) / RFU KIR2DL2 /// KIR2DL4 /// KIR2DL5A /// KIR2DL5B /// KIR2DS1 /// KIR2DS2 /// KIR2DS3 /// KIR2DS4 /// KIR3DL3 /// KIR3DL3 /// KIR3DS1 (11738374_at) / Fold change /veh KIR2DL2 /// KIR2DL4 /// KIR2DL5A /// KIR2DL5B /// KIR2DS1 /// KIR2DS2 /// KIR2DS3 /// KIR2DS4 /// KIR3DL3 /// KIR3DL3 /// KIR3DS1 (11738374_at) / RFU C1QL1 (11718748_at) / Fold change /veh C1QL1 (11718748_at) / RFU TMPRSS4 (11747572_a_at) / Fold change /veh TMPRSS4 (11747572_a_at) / RFU HAMP (11756126_x_at) / Fold change /veh HAMP (11756126_x_at) / RFU RNFT2 (11725882_a_at) / Fold change /veh RNFT2 (11725882_a_at) / RFU NR4A2 (11747474_a_at) / Fold change /veh NR4A2 (11747474_a_at) / RFU ABCC12 (11746883_a_at) / Fold change /veh ABCC12 (11746883_a_at) / RFU TMEM136 (11760407_x_at) / Fold change /veh TMEM136 (11760407_x_at) / RFU CLDN22 /// WWC2 (11732394_at) / Fold change /veh CLDN22 /// WWC2 (11732394_at) / RFU HLA-DPB1 (11760878_x_at) / Fold change /veh HLA-DPB1 (11760878_x_at) / RFU SPINT1 (11716480_a_at) / Fold change /veh SPINT1 (11716480_a_at) / RFU GAP43 (11754022_s_at) / Fold change /veh GAP43 (11754022_s_at) / RFU A4GNT (11735810_at) / Fold change /veh A4GNT (11735810_at) / RFU PRB3 (11715151_x_at) / Fold change /veh PRB3 (11715151_x_at) / RFU TUBB4B (11761932_at) / Fold change /veh TUBB4B (11761932_at) / RFU CAPN14 (11732068_a_at) / Fold change /veh CAPN14 (11732068_a_at) / RFU TMCC2 (11721928_a_at) / Fold change /veh TMCC2 (11721928_a_at) / RFU IRGQ (11745062_a_at) / Fold change /veh IRGQ (11745062_a_at) / RFU FAM174B (11720279_a_at) / Fold change /veh FAM174B (11720279_a_at) / RFU TMPRSS4 (11748680_a_at) / Fold change /veh TMPRSS4 (11748680_a_at) / RFU FAM212B (11763350_a_at) / Fold change /veh FAM212B (11763350_a_at) / RFU PLEKHG5 (11743358_a_at) / Fold change /veh PLEKHG5 (11743358_a_at) / RFU ZSCAN30 (11745921_a_at) / Fold change /veh ZSCAN30 (11745921_a_at) / RFU CMKLR1 (11741424_a_at) / Fold change /veh CMKLR1 (11741424_a_at) / RFU LOC101060620 /// MAPK8IP1 (11723275_at) / Fold change /veh LOC101060620 /// MAPK8IP1 (11723275_at) / RFU SPTSSB (11747773_x_at) / Fold change /veh SPTSSB (11747773_x_at) / RFU PRSS12 (11739890_at) / Fold change /veh PRSS12 (11739890_at) / RFU BIN1 (11741810_x_at) / Fold change /veh BIN1 (11741810_x_at) / RFU WNT11 (11732464_a_at) / Fold change /veh WNT11 (11732464_a_at) / RFU C10orf10 (11716521_a_at) / Fold change /veh C10orf10 (11716521_a_at) / RFU C5orf56 (11738089_at) / Fold change /veh C5orf56 (11738089_at) / RFU CYB561 (11721691_x_at) / Fold change /veh CYB561 (11721691_x_at) / RFU ANKRD19P (11752326_a_at) / Fold change /veh ANKRD19P (11752326_a_at) / RFU OR2T12 /// OR2T33 /// OR2T8 (11738714_s_at) / Fold change /veh OR2T12 /// OR2T33 /// OR2T8 (11738714_s_at) / RFU VCAN (11748164_a_at) / Fold change /veh VCAN (11748164_a_at) / RFU JSRP1 (11732532_at) / Fold change /veh JSRP1 (11732532_at) / RFU KRTAP10-11 (11738290_x_at) / Fold change /veh KRTAP10-11 (11738290_x_at) / RFU MYO3A (11730013_a_at) / Fold change /veh MYO3A (11730013_a_at) / RFU EBF3 (11725865_a_at) / Fold change /veh EBF3 (11725865_a_at) / RFU CAMK2N1 (11719241_x_at) / Fold change /veh CAMK2N1 (11719241_x_at) / RFU C5orf56 (11738088_a_at) / Fold change /veh C5orf56 (11738088_a_at) / RFU OLFML3 (11715873_a_at) / Fold change /veh OLFML3 (11715873_a_at) / RFU LOC100653217 /// NTM (11731650_a_at) / Fold change /veh LOC100653217 /// NTM (11731650_a_at) / RFU MAPK11 (11762145_a_at) / Fold change /veh MAPK11 (11762145_a_at) / RFU FIZ1 (11724087_x_at) / Fold change /veh FIZ1 (11724087_x_at) / RFU OASL (11726364_x_at) / Fold change /veh OASL (11726364_x_at) / RFU SOX15 (11748057_x_at) / Fold change /veh SOX15 (11748057_x_at) / RFU CD79A (11719716_a_at) / Fold change /veh CD79A (11719716_a_at) / RFU HIST1H1D (11736915_at) / Fold change /veh HIST1H1D (11736915_at) / RFU CASKIN2 (11723855_a_at) / Fold change /veh CASKIN2 (11723855_a_at) / RFU LOC730098 (11760151_x_at) / Fold change /veh LOC730098 (11760151_x_at) / RFU OR4N2 (11742367_at) / Fold change /veh OR4N2 (11742367_at) / RFU PRRT2 (11749266_a_at) / Fold change /veh PRRT2 (11749266_a_at) / RFU SNX32 (11753110_a_at) / Fold change /veh SNX32 (11753110_a_at) / RFU CDHR5 (11726645_a_at) / Fold change /veh CDHR5 (11726645_a_at) / RFU RCAN1 (11760418_a_at) / Fold change /veh RCAN1 (11760418_a_at) / RFU FAM167A (11723789_a_at) / Fold change /veh FAM167A (11723789_a_at) / RFU FAM26E (11764081_at) / Fold change /veh FAM26E (11764081_at) / RFU ISYNA1 (11749810_s_at) / Fold change /veh ISYNA1 (11749810_s_at) / RFU ACY1 (11761880_at) / Fold change /veh ACY1 (11761880_at) / RFU 11764098_at / Fold change /veh 11764098_at / RFU SAMD14 (11745864_x_at) / Fold change /veh SAMD14 (11745864_x_at) / RFU NPB (11741838_a_at) / Fold change /veh NPB (11741838_a_at) / RFU TMPRSS6 (11731388_a_at) / Fold change /veh TMPRSS6 (11731388_a_at) / RFU KRTAP10-2 (11738614_at) / Fold change /veh KRTAP10-2 (11738614_at) / RFU ARHGAP8 /// PRR5-ARHGAP8 (11727945_x_at) / Fold change /veh ARHGAP8 /// PRR5-ARHGAP8 (11727945_x_at) / RFU KRTAP5-7 /// NADSYN1 (11734609_at) / Fold change /veh KRTAP5-7 /// NADSYN1 (11734609_at) / RFU RASL12 (11751679_a_at) / Fold change /veh RASL12 (11751679_a_at) / RFU CDKN2B (11736163_a_at) / Fold change /veh CDKN2B (11736163_a_at) / RFU PRF1 (11729649_at) / Fold change /veh PRF1 (11729649_at) / RFU, ZNF638 /// ZNF638-IT1 / Fold change vs veh, ZNF638 /// ZNF638-IT1 / RFU, PANK3 / Fold change vs veh, PANK3 / RFU, SH3YL1 / Fold change vs veh, SH3YL1 / RFU, ZEB2 / Fold change vs veh, ZEB2 / RFU, NRIP1 / Fold change vs veh, NRIP1 / RFU, PTTG1IP / Fold change vs veh, PTTG1IP / RFU, CAPN2 / Fold change vs veh, CAPN2 / RFU, MED14 / Fold change vs veh, MED14 / RFU, SNORA58 / Fold change vs veh, SNORA58 / RFU, C1orf63 / Fold change vs veh, C1orf63 / RFU, LRRFIP1 / Fold change vs veh, LRRFIP1 / RFU, NDUFAF7 / Fold change vs veh, NDUFAF7 / RFU, SLC12A2 / Fold change vs veh, SLC12A2 / RFU, IBTK / Fold change vs veh, IBTK / RFU, ESF1 / Fold change vs veh, ESF1 / Fold change vs veh, TMEM50B / RFU, TAOK1 / Fold change vs veh, TAOK1 / RFU, ACBD3 / Fold change vs veh, ACBD3 / RFU, TMA16 / Fold change vs veh, TMA16 / RFU, RWDD3 / Fold change vs veh, RWDD3 / RFU, BCAT1 / Fold change vs veh, BCAT1 / RFU, EDEM3 / Fold change vs veh, EDEM3 / RFU, TMEM33 / Fold change vs veh, TMEM33 / RFU, WDR75 / Fold change vs veh, WDR75 / RFU, AHCTF1 / Fold change vs veh, AHCTF1 / RFU, TFRC / Fold change vs veh, TFRC / RFU, ZDHHC17 / Fold change vs veh, ZDHHC17 / RFU, NOM1 / Fold change vs veh, NOM1 / RFU, ARL8B / Fold change vs veh, ARL8B / RFU, ZBTB11 / Fold change vs veh, ZBTB11 / RFU, TAMM41 / Fold change vs veh, TAMM41 / RFU, KIAA1704 /// LOC100996395 / Fold change vs veh, KIAA1704 /// LOC100996395 / RFU, ING1 / Fold change vs veh, ING1 / RFU, TRMT61B / Fold change vs veh, TRMT61B / RFU, FUBP3 / Fold change vs veh, FUBP3 / RFU, TP53 / Fold change vs veh, TP53 / RFU, TNKS2 / Fold change vs veh, TNKS2 / RFU, ZFP14 / Fold change vs veh, ZFP14 / RFU, ACTR2 / Fold change vs veh, ACTR2 / RFU, PPP3R1 / Fold change vs veh, PPP3R1 / RFU, PIK3R1 / Fold change vs veh, PIK3R1 / RFU, HNRNPA1 / Fold change vs veh, HNRNPA1 / RFU, RNF170 / Fold change vs veh, RNF170 / RFU, ZNF28 / Fold change vs veh, ZNF28 / RFU, RNGTT / Fold change vs veh, RNGTT / RFU, OGT / Fold change vs veh, OGT / RFU, BRD1 / Fold change vs veh, BRD1 / RFU, MARS / Fold change vs veh, MARS / RFU, ZNF655 / Fold change vs veh, ZNF655 / RFU, FAHD1 / Fold change vs veh, FAHD1 / RFU, BDP1 / Fold change vs veh, BDP1 / RFU, LRRCC1 / Fold change vs veh, LRRCC1 / RFU, ARID1A / Fold change vs veh, ARID1A / RFU, ZNF146 / Fold change vs veh, ZNF146 / RFU, ZNF330 / Fold change vs veh, ZNF330 / RFU, GPN3 / Fold change vs veh, GPN3 / RFU, C9orf123 / Fold change vs veh, C9orf123 / RFU, N4BP2L2 / Fold change vs veh, N4BP2L2 / RFU, ARFIP1 / Fold change vs veh, ARFIP1 / RFU, FAM179B / Fold change vs veh, FAM179B / RFU, BCL10 / Fold change vs veh, BCL10 / RFU, UHRF1BP1L / Fold change vs veh, UHRF1BP1L / RFU, BET1 / Fold change vs veh, BET1 / RFU, CNOT2 / Fold change vs veh, CNOT2 / RFU, ZNF268 / Fold change vs veh, ZNF268 / Fold change vs veh, ZNF507 / RFU, DGCR2 / Fold change vs veh, DGCR2 / RFU, WDSUB1 / Fold change vs veh, WDSUB1 / Fold change vs veh, HSP90B1 /// MIR3652 / RFU, ADSS / Fold change vs veh, ADSS / RFU, GK / Fold change vs veh, GK / RFU, ZNF148 / Fold change vs veh, ZNF148 / RFU, TAF9 / Fold change vs veh, TAF9 / RFU, SLC1A5 / Fold change vs veh, SLC1A5 / RFU, SLMO2 / Fold change vs veh, SLMO2 / RFU, ABCC4 / Fold change vs veh, ABCC4 / RFU, LOC101060439 /// RAP1B / Fold change vs veh, LOC101060439 /// RAP1B / RFU, RFX7 / Fold change vs veh, RFX7 / RFU, GTPBP10 / Fold change vs veh, GTPBP10 / RFU, CNEP1R1 / Fold change vs veh, CNEP1R1 / RFU, BIVM-ERCC5 /// ERCC5 / Fold change vs veh, BIVM-ERCC5 /// ERCC5 / RFU, ILF3 / Fold change vs veh, ILF3 / RFU 11762660_at / Fold change /veh 11762660_at / RFU VCAN (11757783_s_at) / Fold change /veh VCAN (11757783_s_at) / RFU DDX43 (11728927_at) / Fold change /veh DDX43 (11728927_at) / RFU KRT8 (11758188_x_at) / Fold change /veh KRT8 (11758188_x_at) / RFU NKD1 (11759106_at) / Fold change /veh NKD1 (11759106_at) / RFU SRD5A1 (11742802_a_at) / Fold change /veh SRD5A1 (11742802_a_at) / RFU TPSAB1 /// TPSB2 (11721975_s_at) / Fold change /veh TPSAB1 /// TPSB2 (11721975_s_at) / RFU GSTM3 (11746129_a_at) / Fold change /veh GSTM3 (11746129_a_at) / RFU IL23R (11737362_x_at) / Fold change /veh IL23R (11737362_x_at) / RFU TMEM51 (11727254_a_at) / Fold change /veh TMEM51 (11727254_a_at) / RFU PIWIL2 (11732686_x_at) / Fold change /veh PIWIL2 (11732686_x_at) / RFU ORM1 (11744905_x_at) / Fold change /veh ORM1 (11744905_x_at) / RFU CCDC152 (11743942_at) / Fold change /veh CCDC152 (11743942_at) / RFU ECM1 (11717891_a_at) / Fold change /veh ECM1 (11717891_a_at) / RFU IL23R (11748794_a_at) / Fold change /veh IL23R (11748794_a_at) / RFU TNFAIP8L3 (11732012_x_at) / Fold change /veh TNFAIP8L3 (11732012_x_at) / RFU MBOAT4 (11741988_at) / Fold change /veh MBOAT4 (11741988_at) / RFU 11764193_at / Fold change /veh 11764193_at / RFU TMEM53 (11763286_at) / Fold change /veh TMEM53 (11763286_at) / RFU MAGEB2 (11727129_at) / Fold change /veh MAGEB2 (11727129_at) / RFU TMEM200A (11744735_a_at) / Fold change /veh TMEM200A (11744735_a_at) / RFU CCDC152 (11751479_a_at) / Fold change /veh CCDC152 (11751479_a_at) / RFU FAM211A (11726209_a_at) / Fold change /veh FAM211A (11726209_a_at) / RFU RGS16 (11746705_a_at) / Fold change /veh RGS16 (11746705_a_at) / RFU VCAN (11755009_s_at) / Fold change /veh VCAN (11755009_s_at) / RFU RHOB (11743442_s_at) / Fold change /veh RHOB (11743442_s_at) / RFU RGS16 (11720943_a_at) / Fold change /veh RGS16 (11720943_a_at) / RFU RGS16 (11720944_at) / Fold change /veh RGS16 (11720944_at) / RFU, VPS4B / Fold change vs veh, VPS4B / RFU, CREB1 / Fold change vs veh, CREB1 / RFU, DNAJC13 / Fold change vs veh, DNAJC13 / RFU, GNAQ / Fold change vs veh, GNAQ / RFU, CDK5R1 / Fold change vs veh, CDK5R1 / RFU, ZRANB3 / Fold change vs veh, ZRANB3 / RFU, CUL4A / Fold change vs veh, CUL4A / RFU, CCNY / Fold change vs veh, CCNY / RFU, UFL1 / Fold change vs veh, UFL1 / RFU, COG3 / Fold change vs veh, COG3 / RFU, DIAPH2 / Fold change vs veh, DIAPH2 / RFU, SKA2 / Fold change vs veh, SKA2 / RFU, AFF3 / Fold change vs veh, AFF3 / RFU, LMF1 / Fold change vs veh, LMF1 / RFU, IPO11 / Fold change vs veh, IPO11 / RFU, DFFB / Fold change vs veh, DFFB / RFU, FOXP1 / Fold change vs veh, FOXP1 / RFU, CARD8 / Fold change vs veh, CARD8 / RFU, STRN3 / Fold change vs veh, STRN3 / RFU, ADK / Fold change vs veh, ADK / RFU, RASSF2 / Fold change vs veh, RASSF2 / RFU, WIPF1 / Fold change vs veh, WIPF1 / RFU, LARP1B / Fold change vs veh, LARP1B / RFU, RASA1 / Fold change vs veh, RASA1 / RFU, RB1 / Fold change vs veh, RB1 / RFU, PPFIA1 / Fold change vs veh, PPFIA1 / RFU, MAT2A / Fold change vs veh, MAT2A / RFU, CCT5 / Fold change vs veh, CCT5 / RFU, WDR92 / Fold change vs veh, WDR92 / RFU, CUX1 / Fold change vs veh, CUX1 / RFU, TTC7A / Fold change vs veh, TTC7A / RFU, TMEM135 / Fold change vs veh, TMEM135 / RFU, DEPTOR / Fold change vs veh, DEPTOR / RFU, CPM / Fold change vs veh, CPM / RFU, DNAJB6 / Fold change vs veh, DNAJB6 / RFU, CACNA2D3 / Fold change vs veh, CACNA2D3 / RFU, DTX4 / Fold change vs veh, DTX4 / RFU, TFCP2 / Fold change vs veh, TFCP2 / RFU, GMCL1 /// GMCL1P1 / Fold change vs veh, GMCL1 /// GMCL1P1 / RFU, AEBP2 / Fold change vs veh, AEBP2 / RFU, SNHG1 /// SNORD22 /// SNORD25 /// SNORD26 /// SNORD27 /// SNORD28 /// SNORD29 /// SNORD31 / Fold change vs veh, SNHG1 /// SNORD22 /// SNORD25 /// SNORD26 /// SNORD27 /// SNORD28 /// SNORD29 /// SNORD31 / Fold change (Aza/veh), C12orf56 (ProbeSet 11735607_a_at) / Fold change (ACY-1035/veh), C12orf56 (ProbeSet 11735607_a_at) / Fold change (Aza/veh), FGFR1OP (ProbeSet 11751329_s_at) / Fold change (ACY-1035/veh), FGFR1OP (ProbeSet 11751329_s_at) / Fold change (Aza/veh), VPS36 (ProbeSet 11739960_a_at) / Fold change (ACY-1035/veh), VPS36 (ProbeSet 11739960_a_at) / RFU SYPL1 (11715823_x_at) / Fold change /veh SYPL1 (11715823_x_at) / RFU IGFBP7 (11715501_s_at) / Fold change /veh IGFBP7 (11715501_s_at) / RFU REEP3 (11722064_at) / Fold change /veh REEP3 (11722064_at) / RFU IGLL1 (11728026_x_at) / Fold change /veh IGLL1 (11728026_x_at): dose or concentration left out as unconfirmed
Conditions: MV-4-11 cells, 48 hours

**Q.** Nc1ccc(-c2cccs2)cc1NC(=O)c1ccc2c(c1)cc(C1CC1)n2CCN1CCOCC1 [ACY-1035] was tested. Which “RFU VCAN (11755009_s_at)” value did it give?
**A.** 8.96 RFU
